In patent US8765946B2, “Methods of preparing and using quinazoline and quinoline derivatives” (priority 2006, dated 2014):
One block for each compound: values may come before it.

Experiments:
[1] = target: T1, A431 cells EGFR-TK phosphorylation stimulated by EGF (Homo sapiens, UniProt P00533); assay: Inhibition of cellular EGFR-TK phosphorylation stimulated by EGF in A431 cells; type: cell-based; conditions: for EC50: A431 cells EGFR-TK phosphorylation stimulated by EGF (Table 4); for inhibition at 3 µM: A-431, concentration of 3 μM, A431 cells, EGF stimulated, one-time measurement at a single concentration (preliminary selection), NA = No activity, read-out: Inhibition Percent (%)
T1 construct: against A431 cells EGFR-TK; endogenous in cells; host or cells: A431 cells
T1 sequence (P00533 25-1210): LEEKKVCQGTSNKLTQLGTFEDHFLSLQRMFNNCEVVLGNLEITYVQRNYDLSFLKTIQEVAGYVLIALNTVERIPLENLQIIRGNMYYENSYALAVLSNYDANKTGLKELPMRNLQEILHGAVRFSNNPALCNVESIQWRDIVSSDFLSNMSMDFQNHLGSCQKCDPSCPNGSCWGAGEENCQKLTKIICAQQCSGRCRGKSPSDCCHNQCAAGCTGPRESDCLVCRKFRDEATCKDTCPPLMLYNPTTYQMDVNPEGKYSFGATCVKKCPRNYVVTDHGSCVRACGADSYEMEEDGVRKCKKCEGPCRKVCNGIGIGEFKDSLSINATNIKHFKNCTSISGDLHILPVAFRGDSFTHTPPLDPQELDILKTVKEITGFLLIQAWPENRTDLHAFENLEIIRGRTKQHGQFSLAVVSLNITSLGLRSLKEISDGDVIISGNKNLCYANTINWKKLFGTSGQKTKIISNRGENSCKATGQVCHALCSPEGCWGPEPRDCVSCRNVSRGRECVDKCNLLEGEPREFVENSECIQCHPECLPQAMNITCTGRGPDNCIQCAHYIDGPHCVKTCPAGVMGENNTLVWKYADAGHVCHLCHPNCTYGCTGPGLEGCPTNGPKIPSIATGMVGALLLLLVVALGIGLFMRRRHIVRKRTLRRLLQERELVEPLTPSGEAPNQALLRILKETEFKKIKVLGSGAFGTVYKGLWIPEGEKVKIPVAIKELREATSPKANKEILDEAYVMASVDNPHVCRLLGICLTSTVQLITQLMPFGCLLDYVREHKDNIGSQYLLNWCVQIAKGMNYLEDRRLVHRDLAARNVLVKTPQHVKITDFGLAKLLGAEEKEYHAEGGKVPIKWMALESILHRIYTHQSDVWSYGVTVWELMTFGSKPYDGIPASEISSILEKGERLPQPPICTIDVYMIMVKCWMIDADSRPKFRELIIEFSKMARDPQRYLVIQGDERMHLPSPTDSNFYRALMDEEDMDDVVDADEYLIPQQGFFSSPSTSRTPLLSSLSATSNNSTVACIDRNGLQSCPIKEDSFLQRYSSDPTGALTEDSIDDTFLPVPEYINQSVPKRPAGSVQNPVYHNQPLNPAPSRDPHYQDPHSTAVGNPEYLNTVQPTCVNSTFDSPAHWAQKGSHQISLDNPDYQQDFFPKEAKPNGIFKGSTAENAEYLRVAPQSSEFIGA
Method: Inhibition Experiment of Cellular Epidermal Growth Factor Receptor Tyrosine Kinase
1) A431 cells were cultured in a medium which was prepared by adding 10% FCS into another medium comprising 50% DMEM and 50% F12.
2) A431 cells grown in six-well plates were cultured in a serum-free medium for 24 hours. During the 24 hour period the medium was replenished once after 12 hours.
3) A solution containing a compound to be assessed was added the A431 cells and the cells were cultured for 2 hours, supplemented twice by a medium free of the compound, and then EGF (100 ng/well) was added, and cultured for 5 minutes.
4) A431 cell homogenate was prepared by Laemili buffer which comprised 2% sodium dodecyl sulfonate (SDS), 5% 2-mercaptoethanol, 10% glycerol and 5 mM Tris (pH 6.8).
5) The A431 cell homogenate was heated for 5 minutes at 100° C.
6) Proteins in the A431 cell homogenates were separated by PAGE and transferred onto a nitrocellulose membrane, and an infrared reading was obtained.

A431 cells = assay: A431 cell growth inhibition assay (MTT assay); type: cell-based; conditions: Homo sapiens, A-431, concentration of 3 μM, 72 hours, read-out: Inhibition Percent (%)
Method: A431 Cell Growth Inhibition Assay (MTT Assay)
A431, an epidermoid carcinoma cell line; The Cell Bank, Committee on Type Culture Collection Chinese Academy of Science, Shanghai.
Mix prepared medium DMEM and F12 in the proportion of 1:1, then add FBS to a final concentration of 10%.
Dissolved the dried compound sample with 100% DMSO to 2 mM. Then diluted the dissolved compound to 20 μM with cell complete growth medium.
Prior to the assay, cultured the A431 to logarithmic phase, and then removed medium from cell monolayers and wash the cells once with sterilized PBS. Aspriated the PBS and added 2 mL trypsin solution to cover the cell growth surface, removed 1 mL trypsin solution after soaking about 1 minute. Transferred the cell-culture plate to CO2 incubator; incubated at 37° C. for 8 minutes to allow cells to dissociate. After the cells detached, added 4 mL complete growth medium containing FBS with pipette to disperse them off and mixed gently to obtain a homogeneous cell suspension. Aspirated some of the cell suspension to a sterilized polypropylene tube, and determined the cell concentration by counting in a hematocytometer chamber under a microscope. Adjusted the cell concentration with growth medium to obtain 2.5×10^4 cells per milliliter.
Added 100 μL adjusted cell suspension to the 96-well cell-culture plate and occasionally mixed the cell suspension during the seeding process. After seeding cells, incubated the plate at 37° C. overnight with 5% CO2 in the CO2 incubator for cell attachment.
After the cell attachment, added 100 μL prepared compound solutions to the corresponding wells (add PBS to the ambient wells of the plate). The final compound concentrations ranged from 10 μM to 1.52 nM. Incubated the plate at 37° C. with 5% CO2 for 72 hours in the CO2 incubator.
After the exposure to the compound, removed the cell culture supernatant. Then added 100 μL 0.5 mg/mL MTT solution which dissolved in the growth medium without FBS. Incubated the plate at 37° C. with 5% CO2 for another 4 hours to allow the MTT reaction to proceed.
After the MTT reaction, discarded the MTT reaction solution. Added 100 μL DMSO to each well, and the plate was agitated on the plate shaker for several minutes to dissolve the formazan. Then, detected the absorbance at 490 nm using microplate reader.

SMILES: COCCOc1cc2ncc(C#N)c(Nc3ccc(F)c(Cl)c3)c2cc1NC(=O)C=C1CCN(CCOC)CC1 [Example 183, N-(4-(3-chloro-4-fluorophenylamino)-3-cyano-7-(2-methoxyethoxy)quinolin-6-yl)-2-(1-(2-methoxyethyl)piperidin-4-ylidene)acetamide]
inhibition at 3 µM (A431 cells): 90%

SMILES: C#Cc1cccc(Nc2c(C#N)cnc3cc(OCCOC)c(NC(=O)C=C4CCN(C)CC4)cc23)c1 [Example 190, N-(3-cyano-4-(3-ethynylphenylamino)-7-(2-methoxyethoxy)quinolin-6-yl)-2-(1-methylpiperidin-4-ylidene)acetamide]
inhibition at 3 µM (A431 cells): 91%

SMILES: COCCOc1cc2ncc(C#N)c(Nc3ccc(F)c(Cl)c3)c2cc1NC(=O)C=C1CCN(C)CC1 [Example 180, N-(4-(3-chloro-4-fluorophenylamino)-3-cyano-7-(2-methoxyethoxy)quinolin-6-yl)-2-(1-methylpiperidin-4-ylidene)acetamide]
inhibition at 3 µM (A431 cells): 92%

SMILES: C#Cc1cccc(Nc2c(C#N)cnc3cc(OCCOC)c(NC(=O)C=C4CCN(CCC)CC4)cc23)c1 [Example 192, N-(3-cyano-4-(3-ethynylphenylamino)-7-(2-methoxyethoxy)quinolin-6-yl)-2-(1-propylpiperidin-4-ylidene)acetamide]
inhibition at 3 µM (A431 cells): 93%

SMILES: C#Cc1cccc(Nc2c(C#N)cnc3cc(OCCOC)c(NC(=O)C=C4CCN(CC)CC4)cc23)c1 [Example 191, N-(3-cyano-4-(3-ethynylphenylamino)-7-(2-methoxyethoxy)quinolin-6-yl)-2-(1-ethylpiperidin-4-ylidene)acetamide]
inhibition at 3 µM (A431 cells): 93%

SMILES: COCCOc1cc2ncc(C#N)c(Nc3cccc(Br)c3)c2cc1NC(=O)C=C1CCN(C)CC1 [Example 194, N-(4-(3-bromophenylamino)-3-cyano-7-(2-methoxyethoxy)quinolin-6-yl)-2-(1-methylpiperidin-4-ylidene)acetamide]
inhibition at 3 µM (A431 cells): 89%

SMILES: CCCN1CCC(=CC(=O)Nc2cc3c(Nc4ccc(F)c(Cl)c4)c(C#N)cnc3cc2OCC)CC1 [Example 179, N-(4-(3-chloro-4-fluorophenylamino)-3-cyano-7-ethoxyquinolin-6-yl)-2-(1-proplpiperidin-4-ylidene)acetamide]
inhibition at 3 µM (A431 cells): 90%

SMILES: CCCN1CCC(=CC(=O)Nc2cc3c(Nc4ccc(F)c(Cl)c4)c(C#N)cnc3cc2OCCOC)CC1 [Example 182, N-(4-(3-chloro-4-fluorophenylamino)-3-cyano-7-(2-methoxyethoxy)quinolin-6-yl)-2-(1-propylpiperidin-4-ylidene)acetamide]
inhibition at 3 µM (A431 cells): 90%

SMILES: CCOc1cc2ncc(C#N)c(Nc3ccc(F)c(Cl)c3)c2cc1NC(=O)C=C1CCN(CC)CC1 [Example 178, N-(4-(3-chloro-4-fluorophenylamino)-3-cyano-7-ethoxyquinolin-6-yl)-2-(1-ethylpiperidin-4-ylidene)acetamide]
inhibition at 3 µM (A431 cells): 88%

SMILES: C#Cc1cccc(Nc2c(C#N)cnc3cc(OCCOC)c(NC(=O)C=C4CCN(CCOC)CC4)cc23)c1 [Example 193, N-(3-cyano-4-(3-ethynylphenylamino)-7-(2-methoxyethoxy)quinolin-6-yl)-2-(1-(2-methoxyethyl)piperidin-4-ylidene)acetamide]
inhibition at 3 µM (A431 cells): 90%

SMILES: CCN1CCC(=CC(=O)Nc2cc3c(Nc4ccc(F)c(Cl)c4)c(C#N)cnc3cc2OCCOC)CC1 [Example 181, N-(4-(3-chloro-4-fluorophenylamino)-3-cyano-7-(2-methoxyethoxy)quinolin-6-yl)-2-(1-ethylpiperidin-4-ylidene)acetamide]
inhibition at 3 µM (A431 cells): 94%

Other lines, results leading:

EC50 [1]: 900 nM
inhibition at 3 µM [1]: 59%
SMILES: COc1cc2ncnc(Nc3ccc(Oc4ccccc4)c(OC)c3)c2cc1NC(=O)C=C1CCNCC1 [Example 110, N-(7-methoxy-4-(3-methoxy-4-phenoxyphenylamino)quinazolin-6-yl)-2-(piperidin-4-ylidene)acetamide]

inhibition at 3 µM [1]: 73%
SMILES: C#Cc1cccc(Nc2ncnc3ccc(NC(=O)C=C4CCN(CC)CC4)cc23)c1 [Example 5, 2-(1-Ethylpiperidin-4-ylidene)-N-(4-(3-ethynylphenylamino)quinazolin-6-yl)acetamide]

inhibition at 3 µM [1]: 33%
SMILES: O=C(C=C1CCNCC1)Nc1ccc2ncnc(Nc3ccccc3)c2c1 [Example 31, N-(4-(phenylamino)quinazolin-6-yl)-2-(piperidin-4-ylidene)acetamide]

EC50 [1]: 280 nM
inhibition at 3 µM [1]: 91%
SMILES: COCCOc1cc2ncc(C#N)c(Nc3ccc(OCc4cccc(F)c4)c(Cl)c3)c2cc1N [Example 141, 4-(4-(3-fluorobenzyloxy)-3-chlorophenylamino)-6-amino-7-(2-methoxyethoxy)quinoline-3-carbonitrile]

EC50 [1]: 230 nM
SMILES: COCCOc1cc2ncnc(Nc3cccc(Br)c3)c2cc1NC(=O)C=C1CCN(C)CC1 [Example 65, N-(4-(3-bromophenylamino)-7-(2-methoxyethoxy)quinazolin-6-yl)-2-(1-methylpiperidin-4-ylidene)acetamide]

inhibition at 3 µM [1]: 89%
SMILES: COc1cc2ncc(C#N)c(Nc3ccc(OCc4cccc(F)c4)c(Cl)c3)c2cc1NC(=O)C=C1CCNCC1 [Example 144, N-(4-(4-(3-fluorobenzyloxy)-3-chlorophenylamino)-3-cyano-7-methoxyquinolin-6-yl)-2-(piperidin-4-ylidene)acetamide]

inhibition at 3 µM [1]: 64%
SMILES: N#Cc1cnc2ccc(N)cc2c1Nc1ccc(F)c(Cl)c1 [Example 132, 6-amino-4-(3-chloro-4-fluorophenylamino)quinoline-3-carbonitrile]

inhibition at 3 µM [1]: 55%
SMILES: O=C(C=C1CCNCC1)Nc1cc2c(Nc3cccc(Cl)c3)ncnc2cc1F [Example 30, N-(4-(3-chlorophenylamino)-7-fluoroquinazolin-6-yl)-2-(piperidin-4-ylidene)acetamide]

inhibition at 3 µM [1]: 24%
SMILES: C#Cc1cccc(Nc2ncnc3ccc(NC(=O)C=C4CCN(Cc5ccccc5)CC4)cc23)c1 [Example 6, 2-(1-benzylpiperidin-4-ylidene)-N-(4-(3-ethynylphenylamino)quinazolin-6-yl)acetamide]

inhibition at 3 µM [1]: 82%
SMILES: O=C(C=C1CCNCC1)Nc1cc2c(Nc3cccc(Br)c3)ncnc2cc1OCCCN1CCOCC1 [Example 37, N-(4-(3-bromophenylamino)-7-(3-morpholinopropoxy)quinazolin-6-yl)-2-(piperidin-4-ylidene)acetamide]

inhibition at 3 µM [1]: 89%
SMILES: COCCOc1cc2ncnc(Nc3cccc(Br)c3)c2cc1NC(=O)C=C1CCNCC1 [Example 40, N-(4-(3-bromophenylamino)-7-(2-methoxyethoxy)quinazolin-6-yl)-2-(piperidin-4-ylidene)acetamide]

inhibition at 3 µM [1]: 23%
SMILES: C[C@@H](Nc1ncnc2ccc(NC(=O)C=C3CCNCC3)cc12)c1ccccc1 [Example 35, N-(4-((R)-1-phenylethylamino)quinazolin-6-yl)-2-(piperidin-4-ylidene)acetamide]

inhibition at 3 µM [1]: 52%
SMILES: CCOc1cc2ncnc(Nc3ccc(OCc4ccccn4)c(Cl)c3)c2cc1NC(=O)C=C1CCNCC1 [Example 107, N-(4-(3-chloro-4-(pyridin-2-ylmethoxy)phenylamino)-7-ethoxyquinazolin-6-yl)-2-(piperidin-4-ylidene)acetamide]
